According to publication PMC2698029 (Journal of medicinal chemistry, 2009):
Structures can show the parent of a compound that is named as a salt. Marks after values point to notes of the source that are not given here.

Key:
[1] = test system: Plasmodium berghei, ANKA strain; details: cited from earlier work; for Average survival time (not prolonged beyond day): single oral dose of 30 mg/kg, summary of Table 1
[2] = test system: WT-MEF Noncancerous mouse embryonic fibroblasts; test: Cytotoxicity, SRB assay, WT-MEF noncancerous fibroblasts; type: cell-based; details: Fibroblast, 72 h, read-out: IC50 Values (μM)
[3] = Thermal stability in the solid state; type: physicochemical; details: 60 °C
[4] = test system: Plasmodium berghei, ANKA strain; test: Single oral dose antimalarial efficacy in P. berghei-infected mice; type: in vivo, C57BL/6J male mice; details: single oral dose 144 mg/kg
[5] = Hydrolytic stability in DMSO/water; type: physicochemical; details: room temperature, 80/20 DMSO/water at pH 7.4
[6] = single oral dose of 30 mg/kg (printed in the 1 × 72 column)

| Structure (SMILES) | Average Survival (days) After Infection [1, 6] | Average survival time (not prolonged beyond day) [1] [days] | IC50 [2] [µM] | Time stable in the solid state [3] [h] | Parasitemia at day 30 ([4]; 2 of the 5 mice, appeared sick) | Time stable in solution [5] | Stability in the solid state for one week ([3]; one week) | Adverse effects ([4]; malaria-infected mice) | % Suppression of Parasitemia (on day 3 post infection) [1, 6] |
| --- | --- | --- | --- | --- | --- | --- | --- | --- | --- |
| C[C@H]1[C@H](OC(=O)CCC(=O)[O-])O[C@@H]2O[C@@]3(C)CC[C@H]4[C@H](C)CC[C@@H]1[C@@]24OO3.[Na+] [Dimer 1c, sodium artesunate] | 7.6 ^b days | ≤ 11 | – | – | – | – | – | – | – |
| C[C@H]1[C@@H](CC(C[C@H]2O[C@@H]3C[C@]4(C)CC[C@H]5[C@H](C)CC[C@@H]([C@H]2C)[C@@]35OO4)CS(=O)(=O)c2ccc(CO)cc2)O[C@@H]2C[C@]3(C)CC[C@H]4[C@H](C)CC[C@@H]1[C@@]24OO3 (some centres unmarked) [Dimer 4b, dimeric sulfone benzylic alcohol] | – | – | > 50 | ≥ 24 | 7–9% | at least 12 hours | – | – | – |
| C[C@H]1[C@@H](CC(C[C@H]2O[C@@H]3C[C@]4(C)CC[C@H]5[C@H](C)CC[C@@H]([C@H]2C)[C@@]35OO4)CS(=O)(=O)c2ccc(COC(=O)N(C)C)cc2)O[C@@H]2C[C@]3(C)CC[C@H]4[C@H](C)CC[C@@H]1[C@@]24OO3 [Dimer 4c, dimeric sulfone benzylic dimethyl carbamate] | – | – | > 50 | ≥ 24 | – | at least 12 hours | stable | no adverse effects | – |
| CC(C)(N)CNC(=O)C[C@H]1CC[C@]2(CC1)OO[C@]1(O2)C2CC3CC(C2)CC1C3 [Dimer 7, OZ277 maleate] | 10.7 ^b days | ≤ 11 | – | – | – | – | – | – | 99.95 ^b % |
